From US8883778B2, “Cyclic inhibitors of 11 beta-hydroxysteroid dehydrogenase 1” (Vitae Pharmaceuticals, Inc., priority 2009, dated 2014)

Key:
11β-HSD1 [1] = target: T1, 11β-HSD1 (Homo sapiens, UniProt P28845); assay: Inhibition of a microsomal preparation of 11β-HSD1, scintillation proximity assay; type: biochemical; parameters: expressed in transfected cells; host or cells: CHO cells (microsomes); settings: microsomes from CHO cells overexpressing human 11β-HSD1; for inhibition at 0.1 µM: at 100 nM
T1 sequence (P28845 whole entry): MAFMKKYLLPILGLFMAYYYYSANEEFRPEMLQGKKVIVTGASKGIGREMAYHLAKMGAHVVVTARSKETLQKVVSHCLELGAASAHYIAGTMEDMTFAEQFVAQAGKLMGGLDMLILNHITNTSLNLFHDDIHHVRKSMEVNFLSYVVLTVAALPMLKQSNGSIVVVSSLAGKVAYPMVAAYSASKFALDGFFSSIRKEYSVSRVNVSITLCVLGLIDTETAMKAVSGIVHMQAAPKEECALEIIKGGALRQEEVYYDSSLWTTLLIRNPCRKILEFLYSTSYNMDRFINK
Description: All reactions were carried out at rt in 96 well clear flexible PET Microbeta plates (PerkinElmer). […] After a 10 minute pre-incubation, 50 μL of enzyme solution containing microsomes isolated from CHO cells overexpressing human 11β-HSD1 (10-20 μg/ml of total protein) was added, and the plates were incubated for 90 minutes at rt. The reaction was stopped by adding 50 μl of the SPA beads suspension containing 10 μM 18β-glycyrrhetinic acid, 5 mg/ml protein A coated YSi SPA beads (GE Healthcare) and 3.3 μg/ml of anti-cortisol antibody (East Coast Biologics) in Superblock buffer (Bio-Rad). The plates were shaken for 120 minutes at rt, and the SPA signal corresponding to [^3H]cortisol was measured on a Microbeta plate reader.

11β-HSD1 [2] = target: T1, 11β-HSD1; assay: In vitro inhibition of 11β-HSD1 with HTRF technology, cortisol generated by human liver microsomes; type: biochemical; parameters: detecting cortisol generated from cortisterone by human liver microsomes; from tissue; host or cells: human liver microsomes; settings: 1 hour at 37° C., cortisone 80 nM
Description: Briefly, compounds were incubated for 1 hour at 37° C. in Tris buffer (20 mM tris, 5 mM EDTA, pH 6.0) containing NADPH (200 μM) and cortisone (80 nM). Cortisol generated in the reaction is then detected with a competitive immunoassay, involving two HTRF conjugates: cortisol linked to XL665 and anti-cortisol antibody labeled with Europium cryptate. The incubation period for detection reaction was typically 2 hours. The amount of cortisol was determined by reading the time-resolved fluorescence of the wells (Ex 320/75 nm; Em 615/8.5 nm and 665/7.5 nm). The ratio of the two emission signals was then calculated (Em665*10000/Em615). […] Each assay also contained a calibration curve with cortisol to transform the fluorescent data into cortisol concentrations. Percent inhibition of each compound was determined relative to the carbenoxolone signal.

SMILES	inhibition at 0.1 µM (11β-HSD1 [1]) [%]	IC50 (11β-HSD1 [1]) [nM]	IC50 (11β-HSD1 [2]) [nM]
C[C@@H](c1ccc(C#CC(C)(C)NC(=O)N(C)C)cc1)N1CC[C@](CC(C)(C)O)(c2ccccc2)OC1=O [Example 23, 3-(4-(4-((S)-1-((S)-6-(2-hydroxy-2-methylpropyl)-2-oxo-6-phenyl-1,3-oxazinan-3-yl)ethyl)phenyl)-2-methylbut-3-yn-2-yl)-1,1-dimethylurea]	86	12.3	–
COC(=O)OC1(C#Cc2ccc([C@H](C)N3CC[C@](CC(C)(C)O)(c4ccccc4)OC3=O)cc2)CN(C(=O)OC)C1 [Example 27, Methyl 3-((4-((S)-1-((S)-6-(2-hydroxy-2-methylpropyl)-2-oxo-6-phenyl-1,3-oxazinan-3-yl)ethyl)phenyl)ethynyl)-3-(methoxycarbonyloxy)azetidine-1-carboxylate]	95.8	2.4	–
COc1cc(C#Cc2ccc([C@H](C)N3CC[C@](CC(C)(C)O)(c4ccccc4)OC3=O)cc2)ccn1 [Example 28, (S)-6-(2-hydroxy-2-methylpropyl)-3-((S)-1-(4-((2-methoxypyridin-4-yl)ethynyl)phenyl)ethyl)-6-phenyl-1,3-oxazinan-2-one]	103	1.7	–
C[C@@H](c1ccc(C#Cc2cc[nH]c(=O)c2)cc1)N1CC[C@](CC(C)(C)O)(c2ccccc2)OC1=O [Example 29, (S)-6-(2-hydroxy-2-methylpropyl)-3-((S)-1-(4-((2-oxo-1,2-dihydropyridin-4-yl)ethynyl)phenyl)ethyl)-6-phenyl-1,3-oxazinan-2-one]	97.9	1.4	–
C[C@@H](c1ccc(C#Cc2ccn(C)c(=O)c2)cc1)N1CC[C@](CC(C)(C)O)(c2ccccc2)OC1=O [Example 30, (S)-6-(2-Hydroxy-2-methyl-propyl)-3-{(S)-1-[4-(1-methyl-2-oxo-1,2-dihydro-pyridin-4-ylethynyl)-phenyl]ethyl}-6-phenyl-[1,3]oxazinan-2-one]	–	–	29
C[C@@H](c1ccc(C#Cc2ccc(=O)n(C)c2)cc1)N1CC[C@](CC(C)(C)O)(c2ccccc2)OC1=O [Example 31, (S)-6-(2-Hydroxy-2-methyl-propyl)-3-{(S)-1-[4-(1-methyl-6-oxo-1,6-dihydro-pyridin-3-ylethynyl)-phenyl]ethyl}-6-phenyl-[1,3]oxazinan-2-one]	–	–	30

The remaining lines, values ahead:

inhibition at 0.1 µM (11β-HSD1 [1]) [%]	IC50 (11β-HSD1 [1]) [nM]	IC50 (11β-HSD1 [2]) [nM]	SMILES
56.1	62.3	–	C[C@@H](c1ccc(C#CC2(O)CNC2)cc1)N1CC[C@](CC(C)(C)O)(c2ccccc2)OC1=O [Example 24, (S)-6-(2-hydroxy-2-methylpropyl)-3-((S)-1-(4-((3-hydroxyazetidin-3-yl)ethynyl)phenyl)ethyl)-6-phenyl-1,3-oxazinan-2-one]
94.1	3.6	–	CC(=O)N1CC(O)(C#Cc2ccc([C@H](C)N3CC[C@](CC(C)(C)O)(c4ccccc4)OC3=O)cc2)C1 [Example 25, (S)-3-((S)-1-(4-((1-acetyl-3-hydroxyazetidin-3-yl)ethynyl)phenyl)ethyl)-6-(2-hydroxy-2-methylpropyl)-6-phenyl-1,3-oxazinan-2-one]
95.9	2.8	–	COC(=O)N1CC(O)(C#Cc2ccc([C@H](C)N3CC[C@](CC(C)(C)O)(c4ccccc4)OC3=O)cc2)C1 [Example 26, Methyl 3-hydroxy-3-((4-((S)-1-((S)-6-(2-hydroxy-2-methylpropyl)-2-oxo-6-phenyl-1,3-oxazinan-3-yl)ethyl)phenyl)ethynyl)azetidine-1-carboxylate]
